Results taken from patent publication US5989846A, “Assays to identify inducers of plant defense resistance” (Rutgers, The State University of New Jersey, priority 1995, dated 1999).

Assays:
PR1 genes = assay: PR-1 protein/gene expression in tobacco leaves (immunoblot); format: in vivo; conditions: for Induction of PR1 gene expression: tobacco leaves
Procedure: The level of PR1 protein in tobacco leaves was analyzed by immunoblot analysis to establish biological activity. Three leaf discs (1 cm in diameter) were homogenized in 200 microliters of buffer containing 50 mM Tris (pH 8.0), 1 mM EDTA, 12 mM beta-mercaptoethanol and 10 mg/ml phenylmethylsulfonyl fluoride. The homogenate was centrifuged at full speed for 10 minutes in an Eppendorf microcentrifuge. The supernatant was fractionated with 15% polyacrylamide gel under denatured conditions. Protein blotting was done with a monoclonal antibody specific to PR1 protein and protein-antibody complexes were detected with an ECL kit from Amersham.
PR gene expression is both induced by SA and associated with the development of SAR. Therefore, it was of interest to test whether SA's mechanism of action for the induction of PR genes was via its inhibition of catalases which leads to enhanced H2 O2 levels. To address this question, H2 O2 abundance was artificially raised in tobacco leaves by treating with H2 O2 or compounds which either inhibit the catalase activity, like SA itself, or promote generation of H2 O2 in vivo. […]

[1] = test system: resistance or PR gene expression; parameters: key: ++: indicates a high level of biological activity; +: indicates a lower level of biological activity; ±: indicates low, but detectable biological activity in some assays; -: indicates no biological activity; conditions: Table 3; values reported in literature; cited from earlier work
[2] = test system: salicylic acid binding protein; assay: Competitive [14C] salicylic acid binding assay (spin-column); parameters: species or system tobacco; conditions: for Inhibition (%) 2× / Inhibition (%) 10×: [14C] salicylic acid 20 μM; for Inhibition (%) 2×: 40 μM (2×) unlabeled competitor; for Inhibition (%) 10×: 200 μM (10×) unlabeled competitor
Procedure: The 180 kDa native binding protein isolated was tested for binding affinity and specificity. A competitive assay was established using salicylic acid binding protein fractionated from plants as previously described.
A key element during the characterization and the purification process is a simple, inexpensive, sensitive and reliable method for determining the salicylic acid binding activity. For this purpose, spin-column exclusion chromatography was used to separate the bound [^14 C] salicylic acid (excluded) from the bulk free salicylic acid (included). Specifically, a 1.5 ml Eppendorf tube was punctured at the tip with a 20-gauge needle and a small amount of glass wool was added to cover the small hole. The tube was then filled with Bio-Gel P-6DG desalting gel (exclusion limit 6 KDa; purchased from Bio-Rad, Melville, N.Y.) which have been swollen in water. An alternative gel is Sephadex G-25 fine (from Pharmacia, Piscataway, N.J.). Excess liquid in the gel was removed and centrifuged for 5 minutes at full speed in a Dynamic centrifuge (Becton Dickinson). The process was then repeated several times until the gel filled the tube. After incubation of an aliquot of the extract or column fractions for 2 hr at 4° C. with 5 μM-20 μM [^14 C salicylic acid] (specifically radioactivity 55 Ci/mol; purchased from New England Nuclear), 150 μl of proteins binding sample was loaded onto the tube column, which was then rapidly centrifuged for 2 minutes at full speed and the solution of proteins and bound [^14 C-salicylic acid] that was excluded from the gel was collected into another tube that had been placed under the tube column during the centrifugation. One hundred microliters of this solution was then used to determine the amount of bound salicylic acid. […] For example, to determine the inhibitory effect of various salicylic acid analogues on salicylic acid binding activity, these individual analogues were included in the binding mixture containing both the protein and [^14 C] salicylic acid during the 2 hr incubation, and resulting binding activity was determined in comparison to the activity in the absence of these analogues. Likewise, to determine the effect of pH and antioxidants on the binding activity the protein sample was either dialyzed against a large volume of buffers with different pH or antioxidants were added to the protein sample to various concentrations and the resulting binding activities were then determined with the spin-column method in comparison with the activity determined in the absence of these treatments.

SABP/catalase = assay: Competition with 14C-labeled SA for SABP/catalase in crude leaf extracts; format: binding, tobacco; conditions: for Inhibition (%) [14C]SA binding: Table 8, 14C-labeled SA 20 μM, 1 mM unlabeled compound, crude leaf extracts
catalase = assay: In vivo catalase activity in tobacco suspension cells (oxygen electrode); format: cell-based; parameters: Inhibition (%) Catalase activity: concentration or dose not given beside the values; conditions: for Inhibition (%) Catalase activity: Table 8
Procedure: This was determined by adding increasing concentrations of SA or INA to tobacco suspension cells (derived from cultivar Xanthi nc), as described below. The tobacco suspension cell culture was grown in the dark in MS medium at approximately 22° C. with agitation (160 rpm). Cells were maintained by diluting 10-fold every 5 days. For experimentation, 5 ml of suspension cells obtained 3 days after dilution was transferred to a 25 ml Erlenmeyer flask and agitated (100 rpm) at room temperature in the absence or presence of SA or INA which had been adjusted to pH 5.8. After 1 hr, 1 ml of the treated cell suspension was transferred to 7 ml of fresh MS medium containing SA or INA in a 10 ml beaker (density was approximately 6 mg cells per ml). Cells were maintained in suspension with a magnetic stir bar. In vivo catalase activity was determined by measuring, with an oxygen electrode, the rate of H2 O2 -dependent O2 production immediately after addition of H2 O2 to 10 mM final concentration.

[3] = biological target: T1, catalase activity of SABP (Nicotiana tabacum, UniProt P49319); assay: Catalase activity of highly purified SABP (luminol method); format: biochemical, tobacco; conditions: 0.05 h; 1 mM SA or analogue, 1 mM H2O2, 500 ng highly purified SABP
T1 sequence (P49319 1-492): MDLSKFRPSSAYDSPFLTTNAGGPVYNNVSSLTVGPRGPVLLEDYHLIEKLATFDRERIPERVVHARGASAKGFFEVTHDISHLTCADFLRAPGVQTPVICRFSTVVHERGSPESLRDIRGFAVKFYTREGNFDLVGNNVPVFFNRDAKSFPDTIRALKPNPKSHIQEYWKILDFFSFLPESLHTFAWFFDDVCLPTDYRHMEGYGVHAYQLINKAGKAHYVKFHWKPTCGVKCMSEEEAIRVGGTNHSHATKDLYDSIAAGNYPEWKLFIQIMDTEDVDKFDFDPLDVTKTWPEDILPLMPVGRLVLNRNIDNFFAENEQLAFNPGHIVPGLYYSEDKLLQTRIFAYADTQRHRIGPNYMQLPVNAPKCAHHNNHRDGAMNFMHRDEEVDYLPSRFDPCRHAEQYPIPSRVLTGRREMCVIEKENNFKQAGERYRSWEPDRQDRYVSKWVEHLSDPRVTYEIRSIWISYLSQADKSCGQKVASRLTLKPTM
Procedure: Aliquots (50 μl) were removed from the assay mixture at 30 second intervals to assay for amount of H2 O2 remaining using the luminol method as has been described by Warm and Laties, Phytochem. […] The tube was placed in the measuring chamber and assay was initiated with automatic injection into the mixture of 100 μl of 0.5 mM K3 Fe(CN)6 in 0.2N NH4 OH, pH 9.5. Measurements were integrated over 5 second periods. H2 O2 was calculated from the standard curve constructed with known amounts of H2 O2. Rate constants of SABP catalase activity in the presence or absence of SA or its analogues were then calculated based on a first-order mechanism.

SABP = test system: SABP; parameters: concentration or dose not given beside the values; conditions: Table 6; previously published data (Chen et al. 1993); cited from earlier work
ascorbate peroxidase = assay: Ascorbate peroxidase activity in tobacco leaf extracts; format: biochemical, Nicotiana tabacum cv. Xanthi nc; conditions: 200 μM compound, corrected for quenching of auto oxidation
Procedure: […] Two grams of leaves from 6-8 week old tobacco plants (Nicotiana tabacum cv. Xanthi nc) grown at 22° C. in a 14 hr light cycle were homogenized under liquid nitrogen using a pestle and mortar.
To obtain ascorbate peroxidase-containing extracts, the soluble proteins were extracted by grinding the powder in 10 ml of 100 mM potassium phosphate, pH 7, containing […] ascorbate and 1% (weight/volume) polyvinylpyrrolidone, with a small amount of quartz sand. The homogenate was centrifuged at 14,000 g for 5 min. […] The pellet resulting from centrifugation (14,000 g, 15 min.) was resuspended in extraction buffer (100 mM potassium phosphate, pH7, containing 0.25 mM ascorbate and 1% (weight/volume) polyvinylpyrrolidone) and desalted on a PD-10 column (Pharmacia) equilibrated with 50 mM potassium phosphate, pH 7, containing 100 μM ascorbate. The extract was used immediately. […] The amount of protein per assay was 30-50 μg. Oxidation of ascorbate was followed by the decrease in the absorbance at 290 nm.
The values illustrated in FIG. 17 are the mean values for three replicated assays.

Compound | Biological activity [1] | Inhibition (%) 2× [2] | Inhibition (%) 10× [2] | Inhibition (%) [14C]SA binding (SABP/catalase) | Inhibition (%) Catalase activity (catalase) | further results
O=C(O)c1ccccc1 [Benzoic acid] | + | 14% | 25% |  |  | Induction of PR1 gene expression (PR1 genes): able to induce the expression of PR1 genes; Concentration needed relative to salicylic acid for similar levels of PR1 gene expression (PR1 genes; tobacco, FIG. 6A): approximately ten-fold; Inhibition of [14C] salicylic acid binding relative to unlabeled salicylic acid ([2]; as well as unlabeled salicylic acid): about 20%
CCOc1ccccc1C(=O)O [2-Ethoxybenzoic acid] | - | -3% | 2% |  |  | 
O=C(O)c1cc(O)c(O)cc1O [3,4,6-Trihydroxybenzoic acid] | - | 1% | -1% |  |  | 
O=C(O)c1cc(Cl)cc(Cl)c1O [STR11] |  |  |  | 85% | 100% | 
O=C(O)c1cc(Br)nc(Br)c1 [STR2] |  |  |  | 69% | 100% | 
O=C(O)c1c(O)cc(O)cc1O [2,4,6-Trihydroxybenzoic acid] | - | -1% | 3% |  |  | 
CC(C)c1cc(C(=O)O)cc(O)n1 [STR6] |  |  |  | 11% | 15% | 
Nc1ccc(O)c(C(=O)O)c1 [5-Aminosalicylic acid] | - | 1% | -2% |  |  | 
O=C(O)c1ccccc1Cl [2-Chlorobenzoic acid] | - | 0% | 2% |  |  | 
OO [H2 O2, hydrogen peroxide] |  |  |  |  |  | Induction of PR1 gene expression (PR1 genes): induced the expression of PR-1 genes
O=C(O)c1ccccc1O [STR8] |  |  |  | 90% | 84% | 
O=C(O)c1ccc(O)c(O)c1 [3,4-Dihydroxybenzoic acid] |  |  |  |  |  | inhibition at 1000 µM [3]: 5.1%; Inhibition (%) [14C]SA binding (SABP): 0%
O=C(O)c1ccc(O)cc1 [STR13] |  |  |  | 0% | 0% | 
O=C(O)c1ccccc1S [Thiosalicylic acid] | - | -5% | 1% |  |  | % Inhibition of ascorbate peroxidase (ascorbate peroxidase): 0 ± 2%
O=C(O)c1cc(O)nc(O)c1 [STR5] |  |  |  | 19% | 25% | 
Nc1cccc(C(=O)O)c1O [3-Aminosalicylic acid] | - | 1% | 5% |  |  | 
O=C(O)c1cc(Cl)ccc1O [STR10] |  |  |  | 87% | 100% | 
Oc1ccccc1O [Catechol] | - | 0% | 1% |  |  | 
O=C(O)c1cc(Cl)nc(Cl)c1 [STR1] |  |  |  | 65% | 98% | 
O=C(O)CO [glycolate] |  |  |  |  |  | Induction of PR1 gene expression (PR1 genes): induced
Nc1ccc(C(=O)O)c(O)c1 [4-Aminosalicylic acid] | - | 0% | -1% |  |  | % Inhibition of ascorbate peroxidase (ascorbate peroxidase): 9 ± 5%
O=C(O)C=Cc1ccccc1O [O-coumaric acid] |  |  |  |  |  | Induction of PR1 gene expression (PR1 genes): did not induce PR1 gene expression; Competition for binding to salicylic acid binding protein ([2]; competitive binding assay): unable to compete for binding
C[n+]1ccc(-c2cc[n+](C)cc2)cc1 [paraquat] |  |  |  |  |  | Induction of PR1 gene expression (PR1 genes): induced
O=C(O)c1ccc(O)c(O)c1O [2,3,4-Trihydroxybenzoic acid] | - | 1% | 2% |  |  | 
O=Cc1cc(Cl)nc(Cl)c1 [analogue #7] |  |  |  |  |  | Induction of PR-1 protein synthesis / PR-1 gene induction (in words) (PR1 genes; N.t. cv. Xanthi nc): active; Inhibition of binding of 14C-labeled SA to SABP/catalase in vitro (in words) (SABP/catalase; in vitro): much less active; Inhibition of catalase activity in vivo (in words) (catalase): active
O=C(O)c1ccc(Cl)cc1O [STR9] |  |  |  | 88% | 95% | 
O=C(O)c1cccc(O)c1 [STR12] |  |  |  | 1% | 0% | 
CCCc1cc(C(=O)O)cc(O)n1 [STR7] |  |  |  | 7% | 4% | 
O=Cc1cc(Cl)nc(Cl)c1 [STR4] |  |  |  | 25% | 79% | 
O=C(O)c1cc(F)nc(F)c1 [STR3] |  |  |  | 63% | 48% | 
